This is an account of results in article PMC8607422, “Development of a novel TLR8 agonist for cancer immunotherapy” (Molecular Biomedicine, 2020).

The structures appear in SMILES notation.

For this experiment, the target named is T1, hTLR7 (Homo sapiens, UniProt Q9NYK1).
T1 construct: host or cells: HEK-Blue hTLR7
T1 sequence (Q9NYK1 27-1049): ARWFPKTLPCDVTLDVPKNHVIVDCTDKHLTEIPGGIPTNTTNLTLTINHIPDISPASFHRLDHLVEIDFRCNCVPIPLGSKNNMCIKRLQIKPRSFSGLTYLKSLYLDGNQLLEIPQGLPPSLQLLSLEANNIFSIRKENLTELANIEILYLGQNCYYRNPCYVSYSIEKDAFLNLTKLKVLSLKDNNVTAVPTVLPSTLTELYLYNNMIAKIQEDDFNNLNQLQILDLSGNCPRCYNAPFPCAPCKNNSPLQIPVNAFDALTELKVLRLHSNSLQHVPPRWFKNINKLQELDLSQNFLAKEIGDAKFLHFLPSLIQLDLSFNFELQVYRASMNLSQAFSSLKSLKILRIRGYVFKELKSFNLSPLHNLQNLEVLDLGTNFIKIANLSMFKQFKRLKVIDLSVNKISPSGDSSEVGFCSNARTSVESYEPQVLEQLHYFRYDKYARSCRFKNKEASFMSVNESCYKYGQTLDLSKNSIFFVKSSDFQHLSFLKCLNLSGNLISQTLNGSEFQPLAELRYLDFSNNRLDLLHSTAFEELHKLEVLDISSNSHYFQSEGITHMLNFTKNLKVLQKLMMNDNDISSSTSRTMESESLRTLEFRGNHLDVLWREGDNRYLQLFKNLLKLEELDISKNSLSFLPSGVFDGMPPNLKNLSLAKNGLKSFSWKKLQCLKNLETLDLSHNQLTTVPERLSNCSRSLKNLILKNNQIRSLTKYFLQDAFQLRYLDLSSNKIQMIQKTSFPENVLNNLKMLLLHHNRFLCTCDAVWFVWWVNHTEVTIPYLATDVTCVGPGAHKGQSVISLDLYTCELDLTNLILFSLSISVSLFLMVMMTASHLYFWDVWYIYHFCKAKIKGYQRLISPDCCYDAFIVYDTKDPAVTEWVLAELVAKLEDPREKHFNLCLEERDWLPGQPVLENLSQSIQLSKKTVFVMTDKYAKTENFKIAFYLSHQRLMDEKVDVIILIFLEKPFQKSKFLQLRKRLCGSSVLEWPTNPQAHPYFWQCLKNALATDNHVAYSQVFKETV
Briefly: HEK-Blue hTLR7 SEAP reporter agonist assay. To be noted: HEK-Blue hTLR7 cells, highest concentration 50 μM. It is filed as cell-based. The text has this: HEK-Blue™ hTLR4, 7, 8 and 9 cell lines were purchased from InvivoGen (Hong Kong). The cells express the human TLR gene and NF-κB/AP-1-inducible SEAP (secreted embryonic alkaline phosphatase) reporter gene. SEAP levels produced upon TLR stimulation can be determined by QUANTI-Blue™. In the cell-based assay, the main reagents used were QUANTI-Blue™ (InvivoGen) and ATPlite 1 Step (Perkin Elmer). The main instruments used were the microplate reader SpectraMax 340PC (Molecular Device) and Envision (Perkin Elmer). Motolimod and DN052 were synthesized in house. […] The compounds were in 10 mM stock solution in DMSO and stored at − 20°C. The compounds were serially diluted in the concentration range from 0.5 nM to 15 μM (up to 50 μM in the hTLR4, hTLR7 and hTLR9 assays) and added to 96-well plates. DMSO was used as the negative control. LPS-EK, R848, motolimod and ODN2006 were used as the positive control for TLR4, 7, 8 and 9, respectively. The cells were cultured and treated with the compounds at 37°C, 5%CO2 for 24 h. […] After 1.5 h of incubation, the optical density was measured using the spectrophotometer at 650 nm in the microplate reader of SpectraMax 340PC. The cell viability of each well was determined using ATPlite 1 Step following the manufacturer’s instruction. The luminescence signal in each well of plates was measured in the microplate reader of Envision.

With `CCCN(CCC)C(=O)C1=Cc2ccc(-c3ccc(C(=O)N4CCCC4)cc3)cc2N=C(N)C1` [Motolimod, motolimod], a half-maximal effect (EC50) was put at 19.8 µM.

The term EC50 denotes the concentration that produces a half-maximal response.
